Legend:
β-cardiac myosin S1 = target: T1, β-cardiac myosin S1 (Sus scrofa, UniProt P79293); experiment: Microscale thermophoresis direct binding; design: species or system Porcine
T1 construct: S1 and HMM fragments were produced by proteolytic digestion of the full-length proteins with 0.05 mg/ml papain; from tissue; host or cells: porcine cardiac muscle
Source text: (§1) Proteolytic fragments were further purified by actin-coprecipitation.

Dd myosin-2 motor domain = target: T2, Dd myosin-2 motor domain (Dictyostelium discoideum, UniProt P08799); experiment: Microscale thermophoresis direct binding; settings: 100 nM, read-out: Binding affinity (MST), KD
T2 sequence (P08799 1-761 limits assumed): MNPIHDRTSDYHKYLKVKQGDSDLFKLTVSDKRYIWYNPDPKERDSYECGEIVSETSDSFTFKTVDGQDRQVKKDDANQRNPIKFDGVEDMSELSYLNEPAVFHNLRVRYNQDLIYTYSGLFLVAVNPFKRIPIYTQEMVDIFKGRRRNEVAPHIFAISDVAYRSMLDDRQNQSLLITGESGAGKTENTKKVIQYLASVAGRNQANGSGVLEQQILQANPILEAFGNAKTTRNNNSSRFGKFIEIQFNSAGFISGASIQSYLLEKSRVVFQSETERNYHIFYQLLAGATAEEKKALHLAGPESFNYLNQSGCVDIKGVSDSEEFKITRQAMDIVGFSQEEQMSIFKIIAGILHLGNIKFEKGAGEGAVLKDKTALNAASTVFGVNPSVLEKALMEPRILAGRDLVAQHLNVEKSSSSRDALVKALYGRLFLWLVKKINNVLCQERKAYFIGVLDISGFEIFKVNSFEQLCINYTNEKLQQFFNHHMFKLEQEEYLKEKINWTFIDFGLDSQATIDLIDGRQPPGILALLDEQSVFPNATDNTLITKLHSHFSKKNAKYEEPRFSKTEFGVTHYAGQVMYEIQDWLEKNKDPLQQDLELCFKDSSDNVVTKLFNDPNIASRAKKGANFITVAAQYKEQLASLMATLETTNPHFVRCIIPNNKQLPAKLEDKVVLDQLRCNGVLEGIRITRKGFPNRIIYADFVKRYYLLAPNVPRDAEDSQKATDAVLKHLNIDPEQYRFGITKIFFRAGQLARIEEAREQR
Source text: as §1

[1] = target: T3, Dd myosin-2 ΔSH3 (lacks residues 33–79) (Dictyostelium discoideum, UniProt P08799, DEL33-79); experiment: Direct binding to truncated construct; settings: construct lacks SH3-like β-barrel
T3 construct: Dd myosin-2 ΔSH3, a recombinant motor domain construct that lacks this subdomain; made in house
T3 sequence (P08799 other isoform, or with tags, fused parts or gaps DEL33-79): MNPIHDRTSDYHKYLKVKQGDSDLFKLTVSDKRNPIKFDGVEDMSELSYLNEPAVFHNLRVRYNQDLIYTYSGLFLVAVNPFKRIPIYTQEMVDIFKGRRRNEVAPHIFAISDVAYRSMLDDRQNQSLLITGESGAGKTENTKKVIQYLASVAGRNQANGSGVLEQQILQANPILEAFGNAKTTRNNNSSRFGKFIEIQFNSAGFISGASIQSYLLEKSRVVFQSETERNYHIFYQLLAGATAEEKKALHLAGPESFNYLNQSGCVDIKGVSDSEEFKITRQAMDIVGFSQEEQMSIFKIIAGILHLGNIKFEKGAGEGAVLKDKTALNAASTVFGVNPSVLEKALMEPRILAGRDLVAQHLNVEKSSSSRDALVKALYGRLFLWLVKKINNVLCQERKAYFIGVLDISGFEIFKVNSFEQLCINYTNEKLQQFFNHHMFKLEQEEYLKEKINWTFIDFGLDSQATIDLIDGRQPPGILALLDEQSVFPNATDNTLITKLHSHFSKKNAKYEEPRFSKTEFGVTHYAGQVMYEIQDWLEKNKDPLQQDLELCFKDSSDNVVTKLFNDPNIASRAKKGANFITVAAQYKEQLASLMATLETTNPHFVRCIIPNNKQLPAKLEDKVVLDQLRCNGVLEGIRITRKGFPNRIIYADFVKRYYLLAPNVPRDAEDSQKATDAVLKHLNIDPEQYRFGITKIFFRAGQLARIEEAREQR

β-cardiac myosin [2] = target: T4, β-cardiac myosin (Sus scrofa, UniProt P79293); experiment: Steady-state basal and actin-activated Mg2+-ATPase (NADH-coupled assay); assay type: biochemical, Porcine
Protocol: (§2) Rabbit fast skeletal muscle heavy meromyosin (HMM) was prepared as described by [Margossian and Lowey (1982)]. Porcine β-cardiac myosin was prepared essentially as described by [Pant et al. (2009)] and [Jacques et al. (2008)] and further purified by gel filtration. S1 and HMM fragments were produced by proteolytic digestion of the full-length proteins with 0.05 mg/ml papain (10 min, 25°C) for S1 and with 0.1 mg/ml TLCK-treated α-chymotrypsin (15 min, 25°C) for HMM. Reactions were stopped with specific protease inhibitors for papain (10 µM E−64) and chymotrypsin (10 µM chymostatin, 1 mM benzamidine). Proteolytic fragments were further purified by actin-coprecipitation. Pellets were washed twice and myosin was extracted from the pellets using ATP containing buffer. Gel filtration was used to further increase purity of myosin S1 and HMM fragments. His-tagged motor domain constructs of Dd myosin-2, Dd myosin-1B, Dd myosin-1C, Dd myosin-1D, Dd myosin-1E, Dd myosin-5b fused to two Dd α-actinin repeats substituting the light-chain binding domains ([Anson et al., 1996]) were expressed in Dd AX3-ORF + cells and purified by Ni^2+-chelate affinity chromatography ([Manstein and Hunt, 1995]).
Basal and actin-activated Mg^2+-ATPase activities were measured using the NADH-coupled assay described previously ([Furch et al., 1998]) adapted for higher throughput screens for a temperature controlled plate reader (Multiscan FC, Thermo Scientific, Waltham, MA) at 25°C. […] Control measurements were carried out in the absence of drug, as well as in the presence of according concentrations of the non-binding (−)-enantiomer EMD 57439 to account for possible absorption effects. […] Data points are mean values from 3 to 5 independent experiments. Error bars indicate standard deviations.
Target sequence in this assay (P79293 1-810 limits assumed): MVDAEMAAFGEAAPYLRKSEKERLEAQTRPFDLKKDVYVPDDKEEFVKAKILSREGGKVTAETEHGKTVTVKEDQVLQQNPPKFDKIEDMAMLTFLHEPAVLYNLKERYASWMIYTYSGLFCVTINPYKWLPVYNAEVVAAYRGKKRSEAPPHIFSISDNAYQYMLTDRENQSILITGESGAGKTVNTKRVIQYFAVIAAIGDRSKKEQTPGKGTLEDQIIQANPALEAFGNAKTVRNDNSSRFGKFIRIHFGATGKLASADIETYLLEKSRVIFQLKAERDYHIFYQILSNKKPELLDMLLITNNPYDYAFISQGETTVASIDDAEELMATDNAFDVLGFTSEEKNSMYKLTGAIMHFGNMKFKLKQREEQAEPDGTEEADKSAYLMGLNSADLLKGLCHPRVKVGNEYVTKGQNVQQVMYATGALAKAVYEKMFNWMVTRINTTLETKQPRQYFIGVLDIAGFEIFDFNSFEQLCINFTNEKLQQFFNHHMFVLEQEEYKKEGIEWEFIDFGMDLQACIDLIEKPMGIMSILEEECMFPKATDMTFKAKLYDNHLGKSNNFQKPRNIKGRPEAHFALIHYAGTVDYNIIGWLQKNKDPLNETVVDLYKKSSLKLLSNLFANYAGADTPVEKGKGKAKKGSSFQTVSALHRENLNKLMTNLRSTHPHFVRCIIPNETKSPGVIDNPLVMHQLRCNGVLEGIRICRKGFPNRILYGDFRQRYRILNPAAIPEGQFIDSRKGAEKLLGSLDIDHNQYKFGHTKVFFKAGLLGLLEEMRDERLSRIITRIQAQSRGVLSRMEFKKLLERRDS

[3] = test system: Dd myosin-1B, -1C, -1D, -1E motor domains; experiment: as above; assay type: biochemical, Dictyostelium discoideum
Protocol: as §2, with “His-tagged motor domain constructs of Dd myosin-2, Dd myosin-1B, Dd myosin-1C, Dd myosin-1D, Dd myosin-1E, Dd myosin-5b fused to two Dd α-actinin repeats substituting the light-chain binding domains ([Anson et al., 1996]) were expressed in Dd AX3-ORF + cells and purified by Ni^2+-chelate affinity chromatography ([Manstein and Hunt, 1995]).” left out
Basal and actin-activated Mg^2+-ATPase activities were measured using the NADH-coupled assay described previously ([Furch et al., 1998]) adapted for higher throughput screens for a temperature controlled plate reader (Multiscan FC, Thermo Scientific, Waltham, MA) at 25°C. […]

[4] = target: T5, complex formed by the β-cardiac myosin motor domain with F-actin (Sus scrofa, UniProt P79293); experiment: Melting curve by differential static light scattering; settings: 100 µM EMD 57033
T5 construct: Melting curves of the complex formed by the β-cardiac myosin motor domain with F-actin; from tissue; host or cells: porcine cardiac muscle (myosin)
T5 sequence (P79293 1-843 limits assumed, one chain of several): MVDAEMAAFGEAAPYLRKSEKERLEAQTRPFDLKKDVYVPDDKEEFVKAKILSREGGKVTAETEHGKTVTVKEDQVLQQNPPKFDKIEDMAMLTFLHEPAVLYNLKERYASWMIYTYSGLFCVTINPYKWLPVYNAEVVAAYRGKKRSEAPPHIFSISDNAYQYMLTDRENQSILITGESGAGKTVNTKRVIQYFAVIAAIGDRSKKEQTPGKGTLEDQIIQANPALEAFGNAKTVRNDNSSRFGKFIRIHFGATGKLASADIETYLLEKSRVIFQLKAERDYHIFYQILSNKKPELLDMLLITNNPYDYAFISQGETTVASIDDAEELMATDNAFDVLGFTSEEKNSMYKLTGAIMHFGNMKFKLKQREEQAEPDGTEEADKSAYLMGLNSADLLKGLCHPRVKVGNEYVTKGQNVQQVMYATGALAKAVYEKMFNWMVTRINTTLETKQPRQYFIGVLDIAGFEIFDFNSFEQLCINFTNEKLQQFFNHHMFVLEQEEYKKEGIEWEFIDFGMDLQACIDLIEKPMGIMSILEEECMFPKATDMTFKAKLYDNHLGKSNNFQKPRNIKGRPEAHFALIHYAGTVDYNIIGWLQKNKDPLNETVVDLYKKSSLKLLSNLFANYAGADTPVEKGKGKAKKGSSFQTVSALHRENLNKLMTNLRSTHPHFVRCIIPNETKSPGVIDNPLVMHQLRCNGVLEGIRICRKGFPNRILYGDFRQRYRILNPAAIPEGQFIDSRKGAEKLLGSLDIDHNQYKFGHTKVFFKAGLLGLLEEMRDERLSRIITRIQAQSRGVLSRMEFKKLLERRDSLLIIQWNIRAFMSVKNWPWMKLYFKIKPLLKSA
Protocol: Circular dichroism and differential static light scattering experiments were performed to determine Tm.
Protein stability was assayed following protein aggregation associated with heat denaturation ([Senisterra et al., 2006]). Protein solutions were diluted to a concentration of 0.2 mg/ml in a buffer containing 5 mM KPi pH 7.5, 25 mM KCl and heated in steps of 0.6°C. Static light scattering was measured at each temperature step and the resulting transition curve was fitted by a Boltzmann function. The transition midpoint gives a measure for the aggregation temperature induced by protein denaturation.

phosphodiesterase III = test system: phosphodiesterase III; design: method as in Gambassi et al., 1993; settings: ref Gambassi et al., 1993; cited from earlier work
dogs with heart failure = test system: dogs with heart failure; design: method as in Senzaki et al., 2000; settings: ref Senzaki et al., 2000; cited from earlier work
β-cardiac myosin [5] = target: T4, β-cardiac myosin; experiment: Frictional loading experiments with α-actinin (force production); assay type: biochemical, Porcine; design: β-Cardiac myosin-2 (S1, full-length); from tissue; host or cells: porcine cardiac muscle
Source text: In addition, the fraction of moving filaments increased from <75% to >95%. […] In initial experiments, we determined the minimal concentration of α-actinin molecules that generate sufficient load to stall the movement of actin filaments for a given surface density of myosin heads. […] Next, we generated in vitro motility flow cells with actin filaments held at stall force. […] The time-dependence of the recovery of motile activity is best fit by a hyperbola. A plateau value of 0.4 μm s^−1 is reached after more than 2 hr (Figure 1G).
Target sequence in this assay (P79293 whole entry, the tested form may be a part): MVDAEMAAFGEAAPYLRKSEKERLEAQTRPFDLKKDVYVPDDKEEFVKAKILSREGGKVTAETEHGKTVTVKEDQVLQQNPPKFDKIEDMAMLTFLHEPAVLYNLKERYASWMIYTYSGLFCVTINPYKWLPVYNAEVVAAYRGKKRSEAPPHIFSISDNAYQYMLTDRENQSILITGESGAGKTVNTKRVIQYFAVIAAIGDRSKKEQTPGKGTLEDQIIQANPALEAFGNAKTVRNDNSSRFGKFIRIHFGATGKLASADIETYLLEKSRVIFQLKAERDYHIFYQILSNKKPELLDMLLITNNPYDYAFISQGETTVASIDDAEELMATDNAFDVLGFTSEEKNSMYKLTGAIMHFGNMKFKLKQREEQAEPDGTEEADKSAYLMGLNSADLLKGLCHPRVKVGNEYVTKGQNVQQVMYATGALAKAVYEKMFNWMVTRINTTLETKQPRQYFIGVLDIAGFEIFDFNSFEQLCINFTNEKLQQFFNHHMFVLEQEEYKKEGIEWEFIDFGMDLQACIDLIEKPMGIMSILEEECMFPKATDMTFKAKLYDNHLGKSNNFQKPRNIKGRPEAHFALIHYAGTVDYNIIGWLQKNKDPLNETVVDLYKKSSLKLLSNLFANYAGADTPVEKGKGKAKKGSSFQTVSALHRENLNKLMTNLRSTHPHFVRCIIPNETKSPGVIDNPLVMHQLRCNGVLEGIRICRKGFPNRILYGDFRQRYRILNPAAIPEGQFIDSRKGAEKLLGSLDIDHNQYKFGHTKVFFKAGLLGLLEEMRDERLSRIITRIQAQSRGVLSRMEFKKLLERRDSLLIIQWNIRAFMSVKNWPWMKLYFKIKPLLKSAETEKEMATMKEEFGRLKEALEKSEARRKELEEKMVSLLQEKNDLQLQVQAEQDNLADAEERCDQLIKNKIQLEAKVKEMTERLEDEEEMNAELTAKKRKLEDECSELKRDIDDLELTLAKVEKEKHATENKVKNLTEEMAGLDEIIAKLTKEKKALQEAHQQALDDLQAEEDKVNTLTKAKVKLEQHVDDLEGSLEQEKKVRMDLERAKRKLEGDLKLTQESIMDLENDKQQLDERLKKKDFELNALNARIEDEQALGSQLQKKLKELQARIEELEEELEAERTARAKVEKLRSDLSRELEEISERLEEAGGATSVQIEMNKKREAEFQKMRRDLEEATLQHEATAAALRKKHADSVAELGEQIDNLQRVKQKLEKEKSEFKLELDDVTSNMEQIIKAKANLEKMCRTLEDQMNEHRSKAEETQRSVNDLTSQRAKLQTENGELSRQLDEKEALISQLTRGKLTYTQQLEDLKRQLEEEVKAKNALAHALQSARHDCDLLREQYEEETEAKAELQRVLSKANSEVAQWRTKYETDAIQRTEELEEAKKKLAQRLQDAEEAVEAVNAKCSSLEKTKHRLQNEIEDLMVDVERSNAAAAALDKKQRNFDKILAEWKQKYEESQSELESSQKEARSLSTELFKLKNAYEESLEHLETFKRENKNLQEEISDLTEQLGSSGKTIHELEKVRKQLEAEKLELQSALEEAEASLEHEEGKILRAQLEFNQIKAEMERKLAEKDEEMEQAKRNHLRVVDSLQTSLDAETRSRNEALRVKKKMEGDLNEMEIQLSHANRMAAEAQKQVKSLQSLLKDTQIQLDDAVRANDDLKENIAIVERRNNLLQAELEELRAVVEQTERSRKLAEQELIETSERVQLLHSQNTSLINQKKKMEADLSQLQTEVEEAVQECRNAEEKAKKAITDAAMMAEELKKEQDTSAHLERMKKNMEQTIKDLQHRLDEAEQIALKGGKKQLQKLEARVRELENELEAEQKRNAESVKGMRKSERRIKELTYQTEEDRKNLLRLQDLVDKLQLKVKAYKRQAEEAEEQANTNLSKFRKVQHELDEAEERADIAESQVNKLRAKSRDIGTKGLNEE

[6] = 25 μM EMD 57033, 8 µg/ml α-actinin

T1 sequence (P79293 1-843 limits assumed): as the sequence (P79293 1-843 limits assumed, one chain of several) above

COc1ccc(C(=O)N2CCCc3cc(C4=NNC(=O)SC4C)ccc32)cc1OC (centres unmarked) [EMD 57033]
Binding stoichiometry (β-cardiac myosin S1): one molecule of EMD 57033 per myosin head | Kd (β-cardiac myosin S1; fluorescently labeled β-cardiac myosin S1, 100 nM, fit to Hill equation, read-out: Binding affinity (MST), KD): 7.3 µM | Kd (Dd myosin-2 motor domain): 23 µM | Direct binding [1]: neither binding | Normalized maximal ATPase activation (basal) (β-cardiac myosin [2]): 1.5 | Effect on KM,ATP (Lineweaver–Burk plot) (β-cardiac myosin [2]; 25 µM EMD 57033): remains unaffected | kcat increase (Lineweaver–Burk plot) (β-cardiac myosin [2]; 25 µM EMD 57033): 1.5 fold | kcat ∼Change (−fold), increase (β-cardiac myosin [2]; 25 µM EMD 57033 vs control): 1.6 fold | kcat/KM(Actin) (initial slope) ∼Change (−fold) (β-cardiac myosin [2]; 25 µM EMD 57033 vs control): ~15.8 fold | Normalized maximal ATPase activation (with 30 µM actin) (β-cardiac myosin [2]; 30 µM actin): 2.5 | kcat (actin-activated ATPase) (β-cardiac myosin [2]; in presence of 25 µM EMD 57033): 0.19 ± 0.02 s⁻¹ | kcat/KM(Actin), calculated ratio of both values (β-cardiac myosin [2]; in presence of 25 µM EMD 57033): 0.0528 µM^v1 s^−1 | Basal ATP turnover relative to that expected for 100% active protein (β-cardiac myosin [2]; saturating EMD 57033): 1.5 fold | AC50 (β-cardiac myosin [2]; β-Cardiac myosin-2 (S1, full-length), read-out: AC50 ATPase (half-maximal activation)): 7 µM | ATPase activity in excess of the value expected for a 100% active population of myosin heads (β-cardiac myosin [2]; β-cardiac myosin and Dd myosin-2 preparations together): 30–50% | Normalized maximal ATPase activation (basal) [3]: no effect | Normalized maximal ATPase activation (with 30 µM actin) ([3]; 30 µM actin): no effect | Tm (mid-point of transition) [4]: 66.4 ± 3 °C | Phosphodiesterase III inhibition (phosphodiesterase III): only minimal phosphodiesterase III inhibitory effects | Haemodynamic effects in failing heart (dogs with heart failure): potent positive inotropic effects, reduced oxygen cost of contraction, and enhanced diastolic chamber performance | Plateau value of recovered filament velocity at stall load (β-cardiac myosin [5]; [6]): 0.4 μm s^−1 | Time to reach plateau of recovered motility (β-cardiac myosin [5]; [6]): more than 2 hr | α-actinin concentration required to stall filament movement (β-cardiac myosin [5]; in presence of EMD 57033): ≥ 12 µg/mL

Reference: PMC3920478, “Small molecule-mediated refolding and activation of myosin motor function” (eLife, 2014)
